{"source": "patent US20260242365A1", "about": "“USES OF CERTAIN 1,4-OXAZEPANE-2-CARBOXAMIDES AS DPP1 INHIBITORS” (Insmed Incorporated, priority 2023, published 2026)", "key": {"[1]": {"system": "cathepsin G (CatG)", "test": "CatG activity in lysates of mouse bone marrow progenitor cells differentiated into neutrophils under DPP1 inhibitor", "format": "cell-based", "settings": "for max inhibition of CatG activity observed: regardless of day", "description": "Male or female C57BL/6 mice at the age of 8-14 weeks were used.\nThe two femurs and two tibias were removed out of a single mouse and gauze was used to remove the muscles and residue tissues. A sterile environment for surgical instruments and surgical sites is maintained. The bones were put into one 15-mL tube with cold sterile RPMI medium and placed on ice until further processing is performed.\nA fresh 50-mL tube is placed on ice and a fresh 40/70 μm cell strainer (CLS431750, Sigma) is inserted into the top of the Falcon tube. Both ends of two femurs and two tibias are cut with bone cutters and flush bone marrow of all bones from one single mouse are placed into the cell strainer. 5-mL of ice-cold RPMI (RPMI medium containing 10 mM HEPES, pH 7.4) was used for each femur or tibia using a blunt needle (25 G needle), totaling about 20 mL per tube.\nThe cell suspension is centrifuged at 600×g for 5 min at 4° C. and the supernatant is carefully discarded.\nThe cell pellet is resuspended in 400 μL of ice-cold MACS buffer (PH7.2 PBS plus 0.5% BSA and 2 mM EDTA) for one adult mouse (optimized for 4 bones/mouse).\n100 μL Direct Lineage Cell Depletion Cocktail (which is enough for 100 million cells depletion) is added. The components are mixed well and incubated for 10 min. at 2° C.-8° C.\nMagnetic separation LS Column (MACS, Miltenyi, 130 042 401) is prepared by placing it in the magnetic field of MACS Separator and rinsing with 3 mL of ice-cold MACS buffer.\nCell suspension is applied onto the column. Flow-through containing unlabeled cells, representing the enriched lineage negative cells, is collected.\nColumn is washed with 3×3 mL of ice-cold MACS buffer. Unlabeled cells that pass through are collected, representing the enriched lineage negative cells, and combined with the flow-through from prior step.\nThe cell suspension is centrifuged at 600×g for 5 min at 4° C., and the supernatant is carefully discarded. The pellet is washed once with 10 mL ice cold IMDM medium (IMDM GlutaMax (Gibco, 31980030) plus 10% FCS and 1% PS).\nThe cell pellet is resuspended with 2 mL ice-cold complete IMDM medium and the cells are counted. The cells are then ready for neutrophil differentiation.\nThe resulting undifferentiated bone marrow cells are in complete IMDM medium (IMDM with 10% FBS and 1% antibiotics); and the concentration of cells is adjusted to 1×10^5 cells/mL, supplemented with 50 ng/ml of SCF (BioLegend, 579704) and 50 ng/ml of IL 3 (BioLegend, 575504). The cells are subgrouped and the respective DPP1 inhibitors are added accordingly. Cells are then cultivated in a flask at 37° C. for 3 days.\nCells are checked each day for expansion and maintaining a final concentration between 2-10×10^5 cells/ml. On day 3, cells are counted. 3-4 million cells for each group are harvested and lystates prepared for NSPs activity detection. The left cells are resuspended at 2× 10^5 cells/mL in fresh medium supplemented with 50 ng/ml of SCF, 50 ng/ml of IL 3 and 50 ng/ml of G-CSF (BioLegend, 574604). The DPP1 inhibitors are refreshed in the medium. Cells are then cultivated in a flask at 37° C. for another 2 days.\nOn day 5, cells are counted. 3-4 million cells/condition are harvested and the cells are lysed to prepare samples for NSPs activity detection. The remaining cells are collected by centrifugation at 600×g for 5 min. The left cells are washed once in 1×PBS. After the wash, the pelleted cells are resuspended in complete IMDM medium at 4-6×10^5 cells/mL supplemented with 50 ng/ml of G-CSF only. The DPP1 inhibitors in the medium are refreshed. Cells incubate for additional 2 days, for a total of 7 days from day of harvest. On day 7, cells are counted. 3-4 million cells/condition are harvested and the cell lysed to prepare samples for NSPs activity detection.\n3-4 million cells are collected into Eppendorf tubes. Samples are spun down at 600×g, 4° C. for 5 min. The supernatant is removed and resuspended in 1 mL PBS. […]"}, "[2]": {"target": "T1, human DPP1 (Homo sapiens, UniProt P53634)", "T1 construct": "was first proteolytically processed into its mature form using recombinant human cathepsin L; purchased R&D Systems", "T1 sequence (P53634 25-134 limits assumed)": "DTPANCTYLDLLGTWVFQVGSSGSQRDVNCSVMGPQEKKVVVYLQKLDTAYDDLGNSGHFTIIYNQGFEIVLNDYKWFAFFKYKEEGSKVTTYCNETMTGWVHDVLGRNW", "T1 sequence (P53634 231-394 limits assumed)": "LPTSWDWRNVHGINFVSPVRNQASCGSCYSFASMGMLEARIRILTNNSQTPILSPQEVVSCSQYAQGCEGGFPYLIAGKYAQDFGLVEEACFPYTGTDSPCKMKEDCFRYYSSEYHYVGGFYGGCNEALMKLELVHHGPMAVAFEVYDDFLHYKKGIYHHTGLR", "T1 sequence (P53634 395-463 limits assumed)": "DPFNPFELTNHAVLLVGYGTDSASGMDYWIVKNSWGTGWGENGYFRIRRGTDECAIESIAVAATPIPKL", "test": "Human DPP1 Enzyme IC50 Assay", "format": "biochemical", "settings": "activated human DPP1 enzyme, H-Gly-Arg-AMC substrate", "description": "Recombinant human DPP1 enzyme (R&D Systems; Minneapolis, MN) was first proteolytically processed into its mature form using recombinant human cathepsin L (R&D Systems) in a buffer consisting of 20 mM citric acid pH 4.5, 150 mM NaCl, 1 mM EDTA and 10 mM DTT. Alternatively, a crude lysate of HL-60 cells (ATCC; Manassas, VA) is used as a source of human DPP1 enzyme in the assay. Lysate was prepared in 1% Triton X-100 in PBS at a concentration of 20,000 live cells per μL of lysis buffer and centrifuged at 16,000×g for 10 minutes at 4° C., after which supernatant was collected and flash-frozen in liquid nitrogen.\nTest articles were applied to activated human DPP1 enzyme in Assay Buffer (25 mM MES pH 6.0, 50 mM NaCl, 5 mM DTT) in a total reaction volume of 125 μL. 25 μL of compound in Assay Buffer plus 5% DMSO was first added to 50 μL of activated human DPP1 enzyme at a concentration of 1 ng/μL and allowed to pre-incubate for 10 minutes at 37° C. after which 50 μL of 1000 μM H-Gly-Arg-AMC substrate (Bachem; St. Torrance, CA) was added, giving final substrate concentration of 400 μM and a final DMSO concentration of 1%. Substrate cleavage was measured for 90 minutes at 37° C., with fluorescence at Excitation/Emission 350/450 nm measured every 5 minutes. DPP1 concentration was interpolated based on its activity relative to a standard curve of activated human recombinant DPP1 enzyme. IC50 values for each compound were calculated via the XLFit (IDBS Version 5.3.1.3) Add-On to Microsoft Excel using the four parameter fit equation y=(A+ ((B−A)/(1+ ((C/x)^D)))), which appears as equation number 205 (4 Parameter Logistic Model or Sigmoidal Dose-Response Model) in XLFit. Default constraints were used for each Parameter."}}, "data": [{"smiles": "COC1CNC[C@@H](C(=O)N[C@H](C#N)Cc2ccc(-c3ccc4oc(=O)n(C)c4c3)cc2)OC1", "note": "(mixture of isomers) [INSM-202, (6-rac)-(2S)—N-[(1S)-1-cyano-2-[4-(3-methyl-2-oxo-2,3-dihydro-1,3-benzoxazol-5-yl)phenyl]ethyl]-6-methoxy-1,4-oxazepane-2-carboxamide]", "values": [{"measurement": "CatG Activity (% reduction from control)", "setting": "[1]; 0.02 μM, Day 3", "value": 93, "unit": "%"}, {"measurement": "CatG Activity (% reduction from control)", "setting": "[1]; 0.02 μM, Day 5", "value": 94, "unit": "%"}, {"measurement": "CatG Activity (% reduction from control)", "setting": "[1]; 0.02 μM, Day 7", "value": 99, "unit": "%"}, {"measurement": "CatG Activity (% reduction from control)", "setting": "[1]; 0.1 μM, Day 3", "value": 100, "unit": "%"}, {"measurement": "CatG Activity (% reduction from control)", "setting": "[1]; 0.1 μM, Day 5", "value": 100, "unit": "%"}, {"measurement": "CatG Activity (% reduction from control)", "setting": "[1]; 0.1 μM, Day 7", "value": 100, "unit": "%"}, {"measurement": "max inhibition of CatG activity observed", "setting": "[1]", "value": "~ 95%"}, {"measurement": "IC50", "setting": "[2]", "value": "1.03 ± 0.1", "unit": "nM"}]}, {"smiles": "Cn1c(=O)oc2ccc(-c3ccc(C[C@@H](C#N)NC(=O)[C@@H]4CNC[C@H](O)CO4)cc3)cc21", "note": "(single isomer, unassigned) [INSM-201, (2S,6S*)—N-[(1S)-1-cyano-2-[4-(3-methyl-2-oxo-2,3-dihydro-1,3-benzoxazol-5-yl)phenyl]ethyl]-6-hydroxy-1,4-oxazepane-2-carboxamide]", "values": [{"measurement": "reduction in CatG activity", "setting": "[1]", "value": "concentration-dependent reduction in CatG activity"}, {"measurement": "CatG Activity (% reduction from control)", "setting": "[1]; 0.02 μM, Day 3", "value": 46, "unit": "%"}, {"measurement": "CatG Activity (% reduction from control)", "setting": "[1]; 0.02 μM, Day 5", "value": 27, "unit": "%"}, {"measurement": "CatG Activity (% reduction from control)", "setting": "[1]; 0.02 μM, Day 7", "value": 78, "unit": "%"}, {"measurement": "CatG Activity (% reduction from control)", "setting": "[1]; 0.1 μM, Day 3", "value": 90, "unit": "%"}, {"measurement": "CatG Activity (% reduction from control)", "setting": "[1]; 0.1 μM, Day 5", "value": 94, "unit": "%"}, {"measurement": "CatG Activity (% reduction from control)", "setting": "[1]; 0.1 μM, Day 7", "value": 98, "unit": "%"}, {"measurement": "max inhibition of CatG activity observed", "setting": "[1]; at 1 μM", "value": "~ 95%"}, {"measurement": "CatG inhibition at low dose, fluctuations depending on the day (range)", "setting": "[1]; low dose, range over days", "value": "27-78%"}, {"measurement": "IC50", "setting": "[2]", "value": "2.03 ± 0.2", "unit": "nM"}]}, {"smiles": "COC1CNC[C@@H](C(=O)N[C@H](C#N)Cc2ccc(-c3ccc4oc(=O)n(C)c4c3)cc2)OC1", "note": "(single isomer, unassigned) [INSM-203, (2S,6R*)—N-[(1S)-1-cyano-2-[4-(3-methyl-2-oxo-2,3-dihydro-1,3-benzoxazol-5-yl)phenyl]ethyl]-6-methoxy-1,4-oxazepane-2-carboxamide]", "values": [{"measurement": "CatG Activity (% reduction from control)", "setting": "[1]; 0.02 μM, Day 3", "value": 93, "unit": "%"}, {"measurement": "CatG Activity (% reduction from control)", "setting": "[1]; 0.02 μM, Day 5", "value": 97, "unit": "%"}, {"measurement": "CatG Activity (% reduction from control)", "setting": "[1]; 0.02 μM, Day 7", "value": 94, "unit": "%"}, {"measurement": "CatG Activity (% reduction from control)", "setting": "[1]; 0.1 μM, Day 3", "value": 99, "unit": "%"}, {"measurement": "CatG Activity (% reduction from control)", "setting": "[1]; 0.1 μM, Day 5", "value": 100, "unit": "%"}, {"measurement": "CatG Activity (% reduction from control)", "setting": "[1]; 0.1 μM, Day 7", "value": 96, "unit": "%"}, {"measurement": "max inhibition of CatG activity observed", "setting": "[1]", "value": "~ 95%"}, {"measurement": "IC50", "setting": "[2]", "value": "0.6 ± 0.1", "unit": "nM"}]}]}
